Series [1] has as its system SMN2 mini-gene splicing in COS7 cells expressing r(CGG)60X. As to the kind of experiment: SMN2 alternative pre-mRNA splicing in FXTAS cell culture model. The class given is cell-based.
Another series deals with r(CGG) repeats. The conditions noted are these: cited from earlier work.
The subject of the next series is r(CGG)12-DGCR8Δ complex. The conditions noted are these: read-out: IC50 for disrupting binding of DGCR8Δ; in vitro; cited from earlier work.
The target in series [2] is T1, DGCR8Δ (UniProt Q8WYQ5 493-720).
T1 sequence: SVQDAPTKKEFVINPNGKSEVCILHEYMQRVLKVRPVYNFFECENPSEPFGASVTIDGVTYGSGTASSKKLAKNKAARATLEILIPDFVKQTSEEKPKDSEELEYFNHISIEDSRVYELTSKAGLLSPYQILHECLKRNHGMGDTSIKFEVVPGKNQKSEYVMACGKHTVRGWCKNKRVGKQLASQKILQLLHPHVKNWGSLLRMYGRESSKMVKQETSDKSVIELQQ
As to the kind of experiment: EMSA. Background: A gel shift assay detects complexes by their altered migration in electrophoresis.

Series [3] addresses T1, DGCR8Δ. As to the kind of experiment: TR-FRET.

Here are results for five molecules from PMC4287843 (ACS Chemical Biology, 2014).

Strand notation (5' to 3'): a small letter for the sugar, then the base; units joined by * are phosphorothioate-linked, units joined directly phosphodiester-linked; [ ] holds rarer units or linkages, { } end groups; capitals alone tell only the bases. m = 2'-O-methyl

“2’OMe-PS-(CUGCGCGUAUUAGUCUACAAGUAAGGGCU-ACGACCU) (mC*mU*mG*mC*mG*mC*mG*mU*mA*mU*mU*mA*mG*mU*mC*mU*mA*mC*mA*mA*mG*mU*mA*mA*mG*mG*mG*mC*mU*mA*mC*mG*mA*mC*mC*mU) [scrambled oligonucleotide]”: the “effect on SMN2 splicing defect” value in series [1] (100 and 500 nM oligo (not 4 or 20 nM)) was “exacerbates splicing defects”.

Broadly, the Kd is a measure of binding affinity in units of concentration. For orientation: IC50 means the concentration needed to halve the response being measured. On to `Cc1c2cc[n+](CCN3CCCCC3)cc2c(C)c2c1[nH]c1ccc(O)cc12` [1a, 9-hydroxy-5,11-dimethyl-2-(2-(piperidin-1-yl)ethyl)-6H-pyrido[4,3-b]carbazol-2-ium], for which, at r(CGG) repeats, the Kd is 0.076 ± 0.004 µM. In addition, in the series with r(CGG)12-DGCR8Δ complex, the IC50 is 13 ± 0.4 µM. The “fold less potent than 2H-5 for improving pre-mRNA splicing defects” value in series [1] is reported as roughly 10 fold.

For CCGCCGCCGCCGCCGCCGCCGCCGCCGCCGCCGCCG (ssDNA) [d(CCG)12], the binding result in the series with DGCR8Δ [2] is reported as “no binding”.

In the case of CGGCGGCGGCGGCGGCGGCGGCGGCGGCGGCGGCGG (structured_RNA) [r(CGG)12], in the series with DGCR8Δ [3], the binding result was “binds”.

In the case of CCGCCGCCGCCGCCGCCGCCGCCG (ssDNA) [d(CCG)8], the binding result with DGCR8Δ [2] was “no binding”.
